Laboratory results as given in article PMC9959048, “Lipidation of Naturally Occurring α-Helical Antimicrobial Peptides as a Promising Strategy for Drug Design” (International Journal of Molecular Sciences, 2023).
In brackets after ≈: the same amount, converted by molar mass. Residues, ends and D or L forms follow the SMILES beside them. *: point of attachment. Decanoyl = CCCCCCCCCC(=O)*; Octanoyl = CCCCCCCC(=O)*

Assays:
E. coli PCM2057 = type: cell-based, Escherichia coli; conditions: Mueller–Hinton broth, inoculum 5 × 10^5 CFU/mL, 24 h, 37 °C, absorbance 600 nm, triplicate
Experimental: (§1) The evaluation of the antimicrobial activity of the synthesized lipopeptides was performed against the following reference bacterial and fungal strains: Staphylococcus aureus PCM 1650, Staphylococcus aureus PCM 2054, Staphylococcus epidermidis PCM 521, Staphylococcus epidermidis PCM 2118, Escherichia coli PCM 2057, Candida albicans PCM 2566, Candida glabrata CCM 8270, Candida krusei CCM 8271, Candida parapsilosis CCM 8260.
(§2) For the initial cultivation of the bacteria and fungi, Luria-Bertani broth (LB, Biomaxima, Lublin, Poland) and Sabouraud Dextrose broth (SB, Biomaxima, Lublin, Poland) were used, respectively. Antimicrobial properties of the compounds were analyzed through the determination of MIC (minimal inhibitory concentrations) by my means of the serial micro-dilution technique according to the guidelines of Clinical & Laboratory Standard Institute (CLSI) established for aerobic bacteria and yeasts.
(§3) According to the procedures, Mueller–Hinton broth (MHB) was used as the working medium for the analysis of the bacterial susceptibility, while RPMI-1640 (with L-glutamine, without sodium bicarbonate) growth medium buffered with MOPS (morpholinepropanesulfonic acid) and supplemented with 2% glucose was used for the experiments with the fungi.
(§4) The experiments were carried out for 24 h at 37 and 35 °C for the bacteria and fungi, respectively. Then, the absorbance was measured at 600 nm for each well of the 96-well plate using a microplate reader (Sunrise TM, Tecan Trading AG, Männedorf, Switzerland). Based on the obtained results, the degree of inhibition of the growth of microorganisms (expressed in %) in the presence of the tested compounds range was determined with respect to the control probes. Inoculated wells without peptide were treated as a positive control (100% growth), and the wells containing working medium only were defined as a negative control (0% growth). All measurements were repeated in triplicate.

S. epidermidis PCM521 = type: cell-based, Staphylococcus epidermidis; conditions: Mueller–Hinton broth, inoculum 5 × 10^5 CFU/mL, 24 h, 37 °C, absorbance 600 nm, triplicate
Experimental: as §1, §2, §3, §4

S. epidermidis PCM2118 = type: cell-based, Staphylococcus epidermidis; conditions: Mueller–Hinton broth, inoculum 5 × 10^5 CFU/mL, 24 h, 37 °C, absorbance 600 nm, triplicate
Experimental: as §1, §2, §3, §4

S. aureus cells = test: TEM of S. aureus cells treated with lipopeptide; type: cell-based, Staphylococcus aureus; conditions: C8-LL-I at 25 µg/mL, 5 × 10^5 CFU/mL, incubated overnight at 37 °C
Experimental: The cells were centrifuged (8000 rpm, 15 min) and resuspended in fresh media to obtain a high-density cell suspension (5 × 10^5 CFU/mL). […] Afterward, the cells were centrifuged (8000 rpm, 15 min) and washed three times with PBS. The bacterial cells were fixed with 2.5% glutaraldehyde buffered at pH 6.5 with 0.1 M sodium cacodylate (Polysciences, Warrington, PA, USA) for 6 h at room temperature, as described earlier [52]. Additional fixation was performed with a 1% osmium tetroxide solution (Polysciences, Warrington, PA, USA) for 2 h at 4 °C. The cells were centrifuged and resuspended in 0.1 M cacodylate buffer, centrifuged again and dehydrated with ethanol. The bacteria were embedded in Epon 812 resin (Sigma-Aldrich, Darmstadt, Germany) at room temperature. A Leica UC7 ultramicrotome (Wetzlar, Germany) was used to obtain ultra-thin sections (55 nm). As contrasting agents, lead citrate and uranyl acetate were used. Cells were visualized using a Tecnai Spirit BioTWIN (EFI, Hillsboro, OR, USA) microscope at 120 kV.

S. aureus PCM2054 = type: cell-based, Staphylococcus aureus; conditions: Mueller–Hinton broth, inoculum 5 × 10^5 CFU/mL, 24 h, 37 °C, absorbance 600 nm, triplicate
Experimental: as §1, §2, §3, §4

S. aureus PCM1650 = type: cell-based, Staphylococcus aureus; conditions: Mueller–Hinton broth, inoculum 5 × 10^5 CFU/mL, 24 h, 37 °C, absorbance 600 nm, triplicate
Experimental: as §1, §2, §3, §4

C. albicans PCM2566 = type: cell-based, Candida albicans; conditions: RPMI-1640 with MOPS and 2% glucose, inoculum 5 × 10^3 CFU/mL, 24 h, 35 °C, absorbance 600 nm, triplicate
Experimental: as §1, §2, §3, §4

[1] = Dynamic light scattering of lipopeptide assemblies; type: physicochemical; conditions: DLS, sonicated 10 min, incubated 1 h, 90° side scatter
Experimental: The hydrodynamic diameters of the lipopeptide nanoaggregates were examined by the Litesizer 500 (Anton-Paar GmbH, Graz, Austria) at 25 °C. The measurements were carried out at various lipopeptide concentrations ranging from 0.5 to 2 mM and from 0.25 to 2 mM, in water and PBS, respectively. Two-fold serial dilutions were used to obtain the sequential concentrations. Each sample was sonicated for 10 min followed by incubation for 1 h at 25 °C and transferred to the polystyrene cuvette. The detector was positioned at a side scatter position (90°). The analysis of the obtained results and report generation was performed with KalliopeTM software (Anton-Paar GmbH, Graz, Austria).

C. parapsilosis CCM 8260 = type: cell-based, Candida parapsilosis; conditions: RPMI-1640 with MOPS and 2% glucose, inoculum 5 × 10^3 CFU/mL, 24 h, 35 °C, absorbance 600 nm, triplicate
Experimental: as §1, §2, §3, §4

C. glabrata CCM8270 = type: cell-based, Candida glabrata; conditions: RPMI-1640 with MOPS and 2% glucose, inoculum 5 × 10^3 CFU/mL, 24 h, 35 °C, absorbance 600 nm, triplicate
Experimental: as §1, §2, §3, §4

[2] = system: human prostate cancer cells (PC3 line, ATCC); test: MTT cytotoxicity assay; type: cell-based; conditions: IC50 against HaCaT divided by IC50 for PC3
Experimental: (§5) The prepared plates were further incubated for 48 h. […] The control cell viability was assumed to be 100%. Three independent experiments were carried out in three repetitions.

[3] = system: human breast cancer cells (MCF-7 line, ATCC); test: MTT cytotoxicity assay; type: cell-based; conditions: IC50 against HaCaT divided by IC50 for MCF-7
Experimental: as §5

C. krusei CCM8271 = type: cell-based, Candida krusei; conditions: RPMI-1640 with MOPS and 2% glucose, inoculum 5 × 10^3 CFU/mL, 24 h, 35 °C, absorbance 600 nm, triplicate
Experimental: as §1, §2, §3, §4

POPG liposomes = test: CD, α-helix content in POPG liposomes; type: physicochemical; conditions: 25 °C, peptide 0.15 mg/mL, 1.3 mM POPG; for α-Helix percentage, POPG: from ellipticity at 222 nm
Experimental: (§6) Large unilamellar vesicles (LUV) were obtained by extrusion of MLV liposomes through polycarbonate membrane filters with a pore diameter of 100 nm (Whatman International Ltd., Kent, UK) using a mini-extruder (Avanti Polar Lipids, Inc., Alabaster, AL, USA).
(§7) CD experiments were carried out at 25 °C using a Jasco J-815 spectropolarimeter in the wavelength range 185–260 nm. The concentration of the lipopeptides was 0.15 mg/mL. The CD spectra were recorded in water, PBS (pH 7.4), 1.3 mM POPC and 1.3 mM POPG. The results are plotted as the mean molar ellipticity per one amino acid residue (MRME, deg cm^2 dmol^−1) as a function of the wavelength (nm). Additionally, we performed a conformational analysis of the selected compounds in the presence of S. aureus cells. […] The mixtures were then incubated for 2 h before recording the CD spectra.
(§8) The percentage of the α-helical structure was calculated based on the mean molar ellipticity at 222 nm using the formula: fH=θ222−3000/−36000−3000·100% where θ222 corresponds to the value of the mean molar ellipticity at a wavelength of 222 nm.

POPC liposomes = test: CD, α-helix content in POPC liposomes; type: physicochemical; conditions: 25 °C, peptide 0.15 mg/mL, 1.3 mM POPC; for α-Helix percentage, POPC: from ellipticity at 222 nm
Experimental: as §6, §7, §8

POPG LUVs = test: Isothermal titration calorimetry, binding to POPG LUVs; conditions: ITC, 25 °C
Experimental: as §6
The thermodynamic parameters of the interactions of the lipopeptides with POPG and POPC liposomes were determined by isothermal titration calorimetry (ITC). Measurements were performed at 25 °C using an AutoITC microcalorimeter (MicroCal Inc., Northampton, MA, USA) with a 1.4491 mL sample and reference cells. The experiment consisted in the titration of a buffered peptide solution with a concentration of 0.05 and/or 0.07 mM with a buffered solution containing POPG or POPC LUVs with a lipid concentration of 1.3 and 1.8 mM (10.02 µL; 29 injections, 2 µL for the first injection only), as it was described previously. The result of the titration was a thermogram showing a series of peaks corresponding to the titration steps. A titration curve was obtained after integration of the peak areas. The obtained isotherms were fitted to the “one set of sites” or “two sets of sites” models available in the ORIGIN 7.0 (MicroCal Inc., Northampton, MA, USA), which made it possible to determine the enthalpy (ΔH), the binding constant (KITC) and the stoichiometry (N) of the interactions between the lipopeptide and the lipids. The following formula was used to calculate the entropy change (ΔS) and the Gibbs free energy (ΔG): ΔG=−RTln(55.5KITC)=ΔH−TΔS where: factor 55.5 is the molar concentration of water, R is the gas constant (1.986 cal·mol^−1·K^−1), and T is the absolute temperature.

POPC LUVs = test: Isothermal titration calorimetry, binding to POPC LUVs; conditions: ITC, 25 °C, 1.3 mM POPC to 0.05 mM C10-LL-I
Experimental: as §6
The thermodynamic parameters of the interactions of the lipopeptides with POPG and POPC liposomes were determined by isothermal titration calorimetry (ITC). Measurements were performed at 25 °C using an AutoITC microcalorimeter (MicroCal Inc., Northampton, MA, USA) with a 1.4491 mL sample and reference cells. The experiment consisted in the titration of a buffered peptide solution with a concentration of 0.05 and/or 0.07 mM with a buffered solution containing POPG or POPC LUVs with a lipid concentration of 1.3 and 1.8 mM (10.02 µL; 29 injections, 2 µL for the first injection only), as it was described previously. The result of the titration was a thermogram showing a series of peaks corresponding to the titration steps. A titration curve was obtained after integration of the peak areas. The obtained isotherms were fitted to the “one set of sites” or “two sets of sites” models available in the ORIGIN 7.0 (MicroCal Inc., Northampton, MA, USA), which made it possible to determine the enthalpy (ΔH), the binding constant (KITC) and the stoichiometry (N) of the interactions between the lipopeptide and the lipids. […]

[4] = 0.05 or 0.07 mM peptide titrated with 1.3 or 1.8 mM POPG LUVs, one set of sites model (C10-LL-I: two sets of sites, first line)

SMILES	MIC, E. coli PCM2057 (E. coli PCM2057)	MIC, S. epidermidis PCM521 (S. epidermidis PCM521)	MIC, S. epidermidis PCM2118 (S. epidermidis PCM2118)	MIC, S. aureus PCM2054 (S. aureus PCM2054)	MIC, S. aureus PCM1650 (S. aureus PCM1650)	MIC, C. albicans PCM2566 (C. albicans PCM2566)	MIC, C. parapsilosis CCM 8260 (C. parapsilosis CCM 8260)	MIC, C. glabrata CCM8270 (C. glabrata CCM8270)	SI PC3 [2]	SI MCF-7 [3]	MIC, C. krusei CCM8271 (C. krusei CCM8271)	θ222/θ208, POPG (POPG liposomes)	α-Helix percentage, POPG (POPG liposomes)	θ222/θ208, POPC (POPC liposomes)	α-Helix percentage, POPC (POPC liposomes)	pKITC, POPG (POPG LUVs; [4])	further results
CCCCCCCC(=O)N[C@H](C(=O)N[C@@H](CC(N)=O)C(=O)N[C@@H](Cc1c[nH]c2ccccc12)C(=O)N[C@@H](CCCCN)C(=O)N[C@@H](CCCCN)C(=O)N[C@H](C(=O)N[C@@H](CC(C)C)C(=O)NCC(=O)N[C@@H](CCCCN)C(=O)N[C@H](C(=O)N[C@H](C(=O)N[C@@H](CCCCN)C(=O)N[C@H](C(=O)N[C@@H](C)C(=O)N[C@@H](CCCCN)C(N)=O)C(C)C)[C@@H](C)CC)[C@@H](C)CC)C(C)C)C(C)C [C8-LL-I] (Octanoyl-VNWKKVLGKIIKVAK-NH2)	25 µg/mL (≈ 13.5 µM)	6.25 µg/mL (≈ 3.38 µM)	6.25 µg/mL (≈ 3.38 µM)	12.5 µg/mL (≈ 6.76 µM)	12.5 µg/mL (≈ 6.76 µM)	>50 µg/mL	12.5 µg/mL (≈ 6.76 µM)	25 µg/mL (≈ 13.5 µM)	0.76	1.42	12.5 µg/mL (≈ 6.76 µM)	0.90	27%	0.85	48%	3.98 ± 0.06	effect on S. aureus cells (TEM) (S. aureus cells): induced thinning of the membrane and its disintegration; hydrodynamic diameter, peak of highest scattering intensity ([1]; 0.25 mM in PBS pH 7.4, 25 °C): 3360 ± 165 nm; hydrodynamic diameter, peak of highest scattering intensity ([1]; 0.5 mM salt-free aqueous solution, 25 °C): 404 ± 37 nm; hydrodynamic diameter ([1]; 2 mM in PBS pH 7.4, 25 °C): 3844 ± 1031 nm
CCCCCCCCCC(=O)N[C@H](C(=O)N[C@@H](CC(N)=O)C(=O)N[C@@H](Cc1c[nH]c2ccccc12)C(=O)N[C@@H](CCCCN)C(=O)N[C@@H](CCCCN)C(=O)N[C@H](C(=O)N[C@@H](CC(C)C)C(=O)NCC(=O)N[C@@H](CCCCN)C(=O)N[C@H](C(=O)N[C@H](C(=O)N[C@@H](CCCCN)C(=O)N[C@H](C(=O)N[C@@H](C)C(=O)N[C@@H](CCCCN)C(N)=O)C(C)C)[C@@H](C)CC)[C@@H](C)CC)C(C)C)C(C)C [C10-LL-I] (Decanoyl-VNWKKVLGKIIKVAK-NH2)	25 µg/mL (≈ 13.3 µM)	12.5 µg/mL (≈ 6.66 µM)	6.25 µg/mL (≈ 3.33 µM)	12.5 µg/mL (≈ 6.66 µM)	12.5 µg/mL (≈ 6.66 µM)	>50 µg/mL	6.25 µg/mL (≈ 3.33 µM)	25 µg/mL (≈ 13.3 µM)	0.84	1.34	12.5 µg/mL (≈ 6.66 µM)	0.98	19%	0.88	40%	6.02 ± 1.09	pKITC, POPC (POPC LUVs): 4.42 ± 0.24; pKITC, POPG (POPG LUVs; two sets of sites model, second line): 4.69 ± 0.54
